Experimental data published in the NIST ThermoML archive (doi:10.1021/je034102r).
± gives the expanded uncertainty stated by the source.

Assay: Molar enthalpy of transition or fusion
Details: Crystal

**Q.** With CCCCn1cc[n+](C)c1.F[P-](F)(F)(F)(F)F [1-butyl-3-methylimidazolium hexafluorophosphate] as the compound, how does the “Molar enthalpy of transition or fusion” value read?
**A.** Its value is 4.685 ± 0.01 kcal/mol.
